Measurements: PubChem BioAssay AID256 (DTP/NCI, 2004)
Where “and” joins values, the source holds several entries; their conditions need not be identical. Equal values may be shown once. Toxic doses and inconclusive results are not listed. The calls were made as follows: active = survival T/C of 150% or more; inactive = T/C below 125% in these data.

System: CD2F1 mice, L1210 leukemia ip, survival T/C
Assay: NCI In Vivo Anticancer Drug Screen. Data for tumor model L1210 Leukemia (intraperitoneal) in CD2F1 (CDF1) mice
Conditions: higher = longer survival
Procedure, shortened: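 Activity against a transplanted murine tumor was judged by comparing the compound group with a vehicle group. The outcome in the treated animals was divided by that in the controls.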

[1] = endpoint: mean survival time, dose: 100.0 mg/kg/injection, schedule: Q04DX002 (ip), vehicle: saline with Tween-80
[2] = endpoint: mean survival time, dose: 100.0 mg/kg/injection, schedule: Q04DX003 (ip), vehicle: saline with Tween-80
[3] = endpoint: mean survival time, dose: 200.0 mg/kg/injection, schedule: Q04DX003 (ip), vehicle: saline with Tween-80
[4] = endpoint: mean survival time, dose: 400.0 mg/kg/injection, schedule: Q04DX003 (ip), vehicle: saline with Tween-80
[5] = endpoint: mean survival time, dose: 100.0 mg/kg/injection, schedule: Q01DX009 (ip), vehicle: saline with Tween-80
[6] = endpoint: mean survival time, dose: 200.0 mg/kg/injection, schedule: Q01DX009 (ip), vehicle: saline with Tween-80
[7] = endpoint: mean survival time, dose: 400.0 mg/kg/injection, schedule: Q01DX009 (ip), vehicle: saline with Tween-80
[8] = endpoint: mean survival time, dose: 12.5 mg/kg/injection, schedule: Q01DX009 (ip), vehicle: Klucel (hydroxypropylcellulose) (HPC)
[9] = endpoint: mean survival time, dose: 25.0 mg/kg/injection, schedule: Q01DX009 (ip), vehicle: Klucel (hydroxypropylcellulose) (HPC)
[10] = endpoint: mean survival time, dose: 50.0 mg/kg/injection, schedule: Q01DX009 (ip), vehicle: Klucel (hydroxypropylcellulose) (HPC)
[11] = endpoint: mean survival time, dose: 100.0 mg/kg/injection, schedule: Q01DX009 (ip), vehicle: Klucel (hydroxypropylcellulose) (HPC)
[12] = endpoint: mean survival time, dose: 200.0 mg/kg/injection, schedule: Q01DX009 (ip), vehicle: Klucel (hydroxypropylcellulose) (HPC)
[13] = endpoint: mean survival time, dose: 50.0 mg/kg/injection, schedule: Q04DX003 (ip), vehicle: saline with Tween-80
[14] = endpoint: median survival time, dose: 25.0 mg/kg/injection, schedule: Q04DX003 (ip), vehicle: saline with Tween-80
[15] = endpoint: median survival time, dose: 50.0 mg/kg/injection, schedule: Q04DX003 (ip), vehicle: saline with Tween-80
[16] = endpoint: median survival time, dose: 100.0 mg/kg/injection, schedule: Q04DX003 (ip), vehicle: saline with Tween-80
[17] = endpoint: median survival time, dose: 200.0 mg/kg/injection, schedule: Q04DX003 (ip), vehicle: saline with Tween-80

Measured: T/C

NC(=S)c1ncnc2c1ncn2C1OC(CO)C(O)C1O (stereo not drawn)
inactive: endpoint: median survival time, dose: 8.75 mg/kg/injection, schedule: Q01DX005 (ip), vehicle: water 103 % of control | endpoint: median survival time, dose: 17.5 mg/kg/injection, schedule: Q01DX005 (ip), vehicle: water 103 % of control and 107 % of control | endpoint: median survival time, dose: 35.0 mg/kg/injection, schedule: Q01DX005 (ip), vehicle: water 120 % of control and 111 % of control | endpoint: median survival time, dose: 70.0 mg/kg/injection, schedule: Q01DX005 (ip), vehicle: water 122 % of control and 124 % of control

CCCCN1C(=O)N(c2ccc(OCC)cc2)C2N(CCCC)C1C(C)(C)C2(C)C (stereo not drawn)
inactive: [1] 107 % of control | endpoint: median survival time, dose: 7.5 mg/kg/injection, schedule: Q01DX005 (ip), vehicle: saline with Tween-80 107 % of control | endpoint: median survival time, dose: 15.0 mg/kg/injection, schedule: Q01DX005 (ip), vehicle: saline with Tween-80 110 % of control | endpoint: median survival time, dose: 30.0 mg/kg/injection, schedule: Q01DX005 (ip), vehicle: saline with Tween-80 101 % of control | endpoint: median survival time, dose: 60.0 mg/kg/injection, schedule: Q01DX005 (ip), vehicle: saline with Tween-80 101 % of control | endpoint: median survival time, dose: 120.0 mg/kg/injection, schedule: Q01DX005 (ip), vehicle: saline with Tween-80 113 % of control

COc1ccc2c(c1)c(C(=O)O)cc(=O)n2C
inactive: endpoint: mean survival time, dose: 100.0 mg/kg/injection, schedule: Q01DX009 (ip), vehicle: saline sonified 101 % of control | [2] 97 % of control | endpoint: mean survival time, dose: 200.0 mg/kg/injection, schedule: Q01DX009 (ip), vehicle: saline sonified 95 % of control | [3] 102 % of control | endpoint: mean survival time, dose: 400.0 mg/kg/injection, schedule: Q01DX009 (ip), vehicle: saline sonified 95 % of control | [4] 96 % of control

c1ccc2c(c1)ccc1c(C3CO3)cccc12 (stereo not drawn)
inactive: endpoint: mean survival time, dose: 100.0 mg/kg/injection, schedule: Q01DX005 (ip), vehicle: saline with Tween-80 103 % of control | [5] 93 % of control | endpoint: mean survival time, dose: 200.0 mg/kg/injection, schedule: Q01DX005 (ip), vehicle: saline with Tween-80 106 % of control | [6] 101 % of control | endpoint: mean survival time, dose: 400.0 mg/kg/injection, schedule: Q01DX005 (ip), vehicle: saline with Tween-80 95 % of control | [7] 101 % of control

CN(C)c1ccc(C2(O)C3CCC2CC3)cc1 (stereo not drawn)
inactive: endpoint: median survival time, dose: 25.0 mg/kg/injection, schedule: Q04DX002 (ip), vehicle: saline with Tween-80 90 % of control | endpoint: median survival time, dose: 50.0 mg/kg/injection, schedule: Q04DX002 (ip), vehicle: saline with Tween-80 100 % of control | endpoint: median survival time, dose: 100.0 mg/kg/injection, schedule: Q04DX002 (ip), vehicle: saline with Tween-80 90 % of control

C1=NC(c2ccccn2)=NNC(c2ccccn2)=C1c1ccccc1
inactive: [8] 97 % of control | [9] 100 % of control | [10] 95 % of control | [11] 100 % of control | [12] 97 % of control

OCC1=CCN(CCc2c[nH]c3ccccc23)CC1
inactive: [5] 96 % of control | [6] 96 % of control

CC(=O)SCCNCCOCCC#N
inactive: [5] 97 % of control | endpoint: mean survival time, dose: 100.0 mg/kg/injection, schedule: Q04DX003 (ip), vehicle: saline 95 % of control | [6] 101 % of control | endpoint: mean survival time, dose: 200.0 mg/kg/injection, schedule: Q04DX003 (ip), vehicle: saline 101 % of control | [7] 95 % of control | endpoint: mean survival time, dose: 400.0 mg/kg/injection, schedule: Q04DX003 (ip), vehicle: saline 101 % of control

Cc1ccc(C)c(C(=O)O)c1N
inactive: [2] 95 % of control | [3] 95 % of control | [4] 100 % of control

C=CCNC1CCS(=O)(=O)C1 (stereo not drawn)
inactive: endpoint: mean survival time, dose: 50.0 mg/kg/injection, schedule: Q01DX009 (ip), vehicle: saline 104 % of control | endpoint: mean survival time, dose: 100.0 mg/kg/injection, schedule: Q01DX009 (ip), vehicle: saline 97 % of control | endpoint: mean survival time, dose: 200.0 mg/kg/injection, schedule: Q01DX009 (ip), vehicle: saline 104 % of control

CCCCCCCCCCCCCCCC(=O)Nc1ccc2c(c1)[nH]c(=O)c1cc(NC(=O)CCCCCCCCCCCCCCC)ccc12
inactive: [1] 98 % of control | endpoint: mean survival time, dose: 200.0 mg/kg/injection, schedule: Q04DX002 (ip), vehicle: saline with Tween-80 111 % of control | endpoint: mean survival time, dose: 400.0 mg/kg/injection, schedule: Q04DX002 (ip), vehicle: saline with Tween-80 102 % of control

N#CCc1nc2ccccc2[nH]1
inactive: [9] 98 % of control | [10] 93 % of control

COc1ccc2c(c1)c1c(C)c3cnccc3c(C)c1n2CCO
inactive: [2] 112 % of control | [3] 115 % of control

C1CCC(NC2CCCCC2)CC1
inactive: endpoint: mean survival time, dose: 25.0 mg/kg/injection, schedule: Q01DX001 (ip), vehicle: saline with Tween-80 104 % of control | endpoint: mean survival time, dose: 50.0 mg/kg/injection, schedule: Q01DX001 (ip), vehicle: saline with Tween-80 101 % of control | endpoint: median survival time, dose: 25.0 mg/kg/injection, schedule: Q01DX009 (ip), vehicle: saline 94 % of control | endpoint: median survival time, dose: 50.0 mg/kg/injection, schedule: Q01DX009 (ip), vehicle: saline 100 % of control | endpoint: median survival time, dose: 100.0 mg/kg/injection, schedule: Q01DX009 (ip), vehicle: saline 94 % of control | endpoint: median survival time, dose: 200.0 mg/kg/injection, schedule: Q01DX009 (ip), vehicle: saline 97 % of control | endpoint: median survival time, dose: 400.0 mg/kg/injection, schedule: Q01DX009 (ip), vehicle: saline 100 % of control

CC1(C)CN(c2ccccc2)N(CN2CCOCC2)C1=O
inactive: [8] 89 % of control

CCCCc1ccc(O)c(CN2CCCCC2)c1
inactive: endpoint: mean survival time, dose: 25.0 mg/kg/injection, schedule: Q04DX003 (ip), vehicle: saline with Tween-80 97 % of control | [13] 102 % of control | [2] 98 % of control and 100 % of control

Cc1cc(NC(=O)Nc2cc(Cl)ccc2C)no1
inactive: [10] 98 % of control | [12] 91 % of control

COc1cccc(C(=O)c2ccncc2)c1OC
inactive: endpoint: mean survival time, dose: 25.0 mg/kg/injection, schedule: Q01DX009 (ip), vehicle: water 91 % of control | endpoint: mean survival time, dose: 100.0 mg/kg/injection, schedule: Q01DX009 (ip), vehicle: water 95 % of control | endpoint: mean survival time, dose: 200.0 mg/kg/injection, schedule: Q01DX009 (ip), vehicle: water 90 % of control

Nc1ncnc2c1ncn2CCCN1C(=O)c2ccccc2C1=O
inactive: [5] 93 % of control | [6] 95 % of control | [7] 101 % of control

N#Cc1ccccc1NC1OCC(O)C(O)C1O (stereo not drawn)
inactive: [5] 95 % of control | [6] 101 % of control | [7] 94 % of control

C1=C[N]2c3c4c(ccc3=C1)=CC=C[N]4[Ga]2[c]1ccccc1
inactive: [2] 118 % of control

C=C(C#N)C(=O)OCC(CC)CC.C=C(C#N)C(=O)OCC(CC)CC.CS(C)=O.CS(C)=O.Nc1c(N=Nc2ccc(-c3ccc(N=Nc4cc(S(=O)(=O)[O-])c5ccccc5c4N)cc3)cc2)cc(S(=O)(=O)[O-])c2ccccc12.[Pt+2]
inactive: endpoint: median survival time, dose: 3.12 mg/kg/injection, schedule: Q04DX003 (ip), vehicle: saline with Tween-80 95 % of control | endpoint: median survival time, dose: 6.25 mg/kg/injection, schedule: Q04DX003 (ip), vehicle: saline with Tween-80 106 % of control | endpoint: median survival time, dose: 12.5 mg/kg/injection, schedule: Q04DX003 (ip), vehicle: saline with Tween-80 108 % of control | [14] 100 % of control | [15] 97 % of control | [16] 98 % of control | [17] 90 % of control

CC(=O)NC1C(OC(C)=O)OC(COC(c2ccccc2)(c2ccccc2)c2ccccc2)C(OS(C)(=O)=O)C1OC(C)=O (stereo not drawn)
inactive: [13] 95 % of control | [2] 103 % of control | [3] 101 % of control | [4] 89 % of control

CC(c1ccccc1C(=O)O)c1cc(F)cc2ccccc12 (stereo not drawn)
inactive: [14] 111 % of control | [15] 111 % of control | [16] 88 % of control | [17] 88 % of control

O=C1CCCC2C(=O)CCCC12 (stereo not drawn)
inactive: [5] 97 % of control | [6] 103 % of control | [7] 103 % of control

CCCCC(C)(C)C
inactive: [2] 99 % of control | [3] 99 % of control | [4] 114 % of control

NC(=S)N/N=C/c1cc([N+](=O)[O-])ccc1O
inactive: [10] 113 % of control | [11] 97 % of control | [12] 101 % of control
